Among the data in patent US8765774B2, “3-arylquinazolin-4-one compounds for combating invertebrate pests” (BASF SE, priority 2009, dated 2014) are mortality values, retold here.

Holding throughout (format): in vivo
The subject of series [1] is Kanzawa Spider Mite (Tetranychus kanzawai). As to the kind of experiment: Kanzawa spider mite, sprayed potted cotton plants (II.7.a). The settings on record: 300 ppm; population reduction assessed after 24, 72 and 120 hours; in comparison with untreated controls. As for the experimental part: The active compounds were dissolved at the desired concentration in a mixture of 1:1 (vol:vol) acetone:water. The test solutions were prepared at the day of use.
Potted cotton plants colonized with approximately 50 mites of various stages were sprayed after the pest population had been recorded. Population reductions (or increases) after 24, 72 and 120 hours were assessed.

Series [2] has as its system Diamond Back Moth (Plutella xylostella). In words: Diamond back moth, larvae sprayed with test solution (II.1.a). To be noted: 500 ppm; third-instar larvae sprayed; mortality recorded 24, 72 and 120 hours after treatment; in comparison with untreated controls. As for the experimental part:
The active compound was dissolved at the desired concentration in a mixture of 1:1 (vol:vol) acetone:water. The test solution was prepared at the day of use.
Ten, third-istar larvae are sprayed with 1 ml test solution and introduced to untreated leaves held in a petri dish that was lined with moist filter paper. Mortality was recorded 24, 72 and 120 hours after treatment.

For series [3], the system named is Cowpea Aphid (Aphis craccivora). As to the kind of experiment: Activity against cowpea aphid, sprayed potted cowpea plants (II.3). The settings on record: population reduction assessed after 72 hours, in comparison with untreated controls. As for the experimental part: The active compounds were formulated in 50:50 (vol:vol) acetone:water. The test solution was prepared at the day of use.
Potted cowpea plants colonized with 100-150 aphids of various stages were sprayed after the pest population had been recorded. Population reduction was assessed after 72 hours.

A word on the mortality: it is the percentage killed. Read a low mortality as more survivors. As to `Cc1cc(F)c(-n2cnc3ccccc3c2=O)cc1[S+]([O-])CC(F)(F)F` (stereo not shown) [Compound I-2, 2-(2,2,2-trifluoroethylsufinyl)-4-(4-oxo-quinazolin-3-yl)-5-fluoro-toluol], the mortality in series [1] was 100%.

Compound `Cc1cc(F)c(-n2cnc3ccccc3c2=O)cc1SCC(F)(F)F` [Compound I-1, 2-(2,2,2-trifluoroethylsufanyl)-4-(4-oxo-quinazolin-3-yl)-5-fluoro-toluol] showed a mortality in series [1] of 100%.

In the case of `Cc1cc(F)c(-n2c(C)nc3ccccc3c2=O)cc1SCC(F)(F)F` [Compound I-3, 2-(2,2,2-trifluoroethylsufanyl)-4-(2-methyl-4-oxo-quinazolin-3-yl)-5-fluoro-toluol], the mortality in series [2] is recorded as 100%. Compound `O=c1c2ccccc2ncn1-c1ccnc(SCC(F)(F)F)n1` [Compound I-6, 3-[2-(2,2,2-Trifluoro-ethylsulfanyl)-pyrimidin-4-yl]-3H-quinazolin-4-one] displayed a mortality at 300 ppm in series [3] of no less than 50%.
